We go through 23 compounds from ChEMBL document CHEMBL3621074, “Exploration of the linkage elements of porcupine antagonists led to potent Wnt signaling pathway inhibitors” (Bioorg Med Chem, 2015).

Activity calls are given as the source filed them. The calls are words filed in the database; no cut-off is given here. Where only a bound is given, the exact number is not on record here.

Data set [1] has as its target T1, Protein-serine O-palmitoleoyltransferase porcupine (Homo sapiens, UniProt Q9H237).
T1 sequence (Q9H237 whole entry): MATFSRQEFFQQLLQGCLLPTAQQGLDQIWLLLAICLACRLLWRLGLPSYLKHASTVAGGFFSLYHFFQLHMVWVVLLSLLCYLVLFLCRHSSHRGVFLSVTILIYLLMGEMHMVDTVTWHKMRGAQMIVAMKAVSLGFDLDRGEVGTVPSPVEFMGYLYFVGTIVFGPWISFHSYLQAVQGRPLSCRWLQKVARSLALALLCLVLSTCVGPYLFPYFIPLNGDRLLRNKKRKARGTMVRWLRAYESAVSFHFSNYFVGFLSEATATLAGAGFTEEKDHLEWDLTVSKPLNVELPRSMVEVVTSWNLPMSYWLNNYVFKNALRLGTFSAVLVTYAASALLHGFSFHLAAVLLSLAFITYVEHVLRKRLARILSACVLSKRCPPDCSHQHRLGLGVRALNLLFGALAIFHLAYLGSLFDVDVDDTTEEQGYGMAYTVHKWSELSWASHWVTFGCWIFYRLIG
The data set can be described thus: Inhibition of porcupine (unknown origin) expressed in mouse L Wnt3A cells co-cultured with TM3 cells harboring luciferase reporter gene assessed as reduction in Wnt ligand-driven LEF/TCF-dependent transcriptional activity. In kind it is cell-based.

Data set [2] is described as follows: Chemical stability in simulated gastric fluid assessed as remaining compound level incubated for 0 hrs at 200 uM at 40 degC by HPLC method. In kind it is physicochemical. The settings on record: read-out: Stability.
Data set [3] can be described thus: Chemical stability in simulated gastric fluid assessed as remaining compound level incubated for 4 hrs at 200 uM at 40 degC by HPLC method. In kind it is physicochemical. As to conditions: read-out: Stability.
The nature of data set [4]: Chemical stability in simulated gastric fluid assessed as remaining compound level incubated for 8 hrs at 200 uM at 40 degC by HPLC method. The format is physicochemical. As to conditions: read-out: Stability.
Data set [5] is described as follows: Stability of the compound in rat plasma assessed as drug remaining at 1 uM incubated for 30 mins by LC-MS/MS method. The format is ADME, cell-free. As to conditions: read-out: Stability.
A short description of data set [6]: Stability of the compound in rat plasma assessed as drug remaining at 1 uM incubated for 1 hr by LC-MS/MS method. The settings on record: read-out: Stability. In kind it is ADME, cell-free.
Data set [7] can be described thus: Stability of the compound in rat plasma assessed as drug remaining at 1 uM incubated for 8 hr by LC-MS/MS method. The format is ADME, cell-free. The settings on record: read-out: Stability.
Data set [8] in a line: Intrinsic clearance in human liver microsomes at 1 uM incubated for 60 mins in presence of NADPH by LC-MS/MS method. The format is ADME. The settings on record: read-out: CLH.
Data set [9] is described as follows: Intrinsic clearance in mouse liver microsomes at 1 uM incubated for 60 mins in presence of NADPH by LC-MS/MS method. The format is ADME. As to conditions: read-out: CLH.
The nature of data set [10]: Half life in human liver microsomes at 1 uM in presence of NADPH by LC-MS/MS method. The format is ADME.
The nature of data set [11]: Half life in mouse liver microsomes at 1 uM in presence of NADPH by LC-MS/MS method. In kind it is ADME. (In general: Liver microsomes are vesicles of endoplasmic reticulum, rich in cytochrome P450 enzymes.)
For another data set, the target named is CYP3A4 (Homo sapiens, UniProt P08684). The data set can be described thus: Inhibition of CYP3A4 in human liver microsomes at 10 uM pre-incubated for 10 mins before midazolam substrate and NADPH addition by LC-MS/MS method. The settings on record: probe midazolam. The format is ADME.
Another data set concerns the target CYP2D6 (Homo sapiens, UniProt P10635). The data set can be described thus: Inhibition of CYP2D6 in human liver microsomes at 10 uM pre-incubated for 10 mins before dextromethorphan substrate and NADPH addition by LC-MS/MS method. The settings on record: probe dextromethorphan. In kind it is ADME.
In data set [12] the target is T2, Protein-serine O-palmitoleoyltransferase porcupine (Homo sapiens) (UniProt Q9H237).
T2 sequence (whole entry): T1 sequence (Q9H237 whole entry)
Briefly: Inhibition of porcupine (unknown origin) expressed in HEK293T cells transfected with pLinbin- Wnt3A plasmid assessed as inhibition of Wnt3A secretion at 0.1 uM incubated for 48 hrs by Western blotting method. The format is cell-based. As to conditions: HEK-293T.

Data set [13] is described as follows: Effect on total intracellular Wnt3a levels in HEK293T cells transfected with pLinbin- Wnt3A plasmid at 0.1 uM incubated for 48 hrs by Western blotting method. In kind it is ADME, cell-based. As to conditions: human, hek-293t. (In general: A western blot detects proteins with antibodies after separation by electrophoresis.)
In data set [14] the target is T2, Protein-serine O-palmitoleoyltransferase porcupine (Homo sapiens). Briefly: Potency index, ratio of IC50 for LGK974 to IC50 for test compound for inhibition of porcupine (unknown origin) expressed in mouse L Wnt3A cells co-cultured with HEK293 STF cells by STF reporter gene based paracrine cellular reporter gene assay. The format is cell-based. For orientation: In a reporter assay the amount or activity of a reporter protein is the signal.

CYP2D6, sequence (P10635 whole entry): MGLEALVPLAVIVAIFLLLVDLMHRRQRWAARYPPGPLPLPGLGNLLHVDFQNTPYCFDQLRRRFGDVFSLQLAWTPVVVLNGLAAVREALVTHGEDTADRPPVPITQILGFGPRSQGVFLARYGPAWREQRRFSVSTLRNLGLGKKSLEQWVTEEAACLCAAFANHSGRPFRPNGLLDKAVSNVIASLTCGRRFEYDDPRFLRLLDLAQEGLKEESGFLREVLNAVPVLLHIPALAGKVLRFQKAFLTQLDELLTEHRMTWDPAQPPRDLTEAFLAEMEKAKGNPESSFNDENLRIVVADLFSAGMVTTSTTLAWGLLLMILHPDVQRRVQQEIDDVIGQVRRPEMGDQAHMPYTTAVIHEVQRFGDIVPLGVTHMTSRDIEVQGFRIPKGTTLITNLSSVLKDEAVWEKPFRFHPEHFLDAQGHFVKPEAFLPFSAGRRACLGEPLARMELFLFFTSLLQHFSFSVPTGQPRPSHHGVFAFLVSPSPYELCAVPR
CYP3A4, sequence (P08684 whole entry): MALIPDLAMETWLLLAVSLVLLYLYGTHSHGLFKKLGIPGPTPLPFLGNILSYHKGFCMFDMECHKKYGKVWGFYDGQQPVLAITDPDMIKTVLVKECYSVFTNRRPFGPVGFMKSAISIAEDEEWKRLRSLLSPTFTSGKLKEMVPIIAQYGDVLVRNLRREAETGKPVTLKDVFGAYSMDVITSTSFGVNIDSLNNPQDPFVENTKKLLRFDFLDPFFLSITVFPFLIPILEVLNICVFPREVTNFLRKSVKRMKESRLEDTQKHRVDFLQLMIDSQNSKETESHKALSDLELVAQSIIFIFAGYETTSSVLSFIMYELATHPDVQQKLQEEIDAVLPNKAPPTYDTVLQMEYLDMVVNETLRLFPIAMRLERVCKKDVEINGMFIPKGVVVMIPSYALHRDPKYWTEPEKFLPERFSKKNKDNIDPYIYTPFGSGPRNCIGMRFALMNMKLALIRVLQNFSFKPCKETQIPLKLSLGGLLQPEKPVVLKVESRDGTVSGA

What is called IC50 is the concentration needed to halve the response being measured. As to `Cc1cc(-c2ccc(N(C)CC(=O)Nc3ccc(-c4cnccn4)cn3)cc2)ccn1`, the IC50 in [1] is 0.67 nM.
Same read-out and setting: with `Cc1cc(-c2ccc(OC(=O)Nc3ccc(-c4ccccc4)cc3)cc2)ccn1` the figure was 5 nM; with `N#Cc1ccc(OCC(=O)Nc2ccc(-c3cnccn3)cn2)cc1`, 485 nM.
The same measure, in the same setting: the result for `O=C(CNc1ccc2[nH]ncc2c1)Nc1ccc(-c2cnccn2)cn1` reads above 1000 nM; that for `N#Cc1ccc2cc(OCC(=O)Nc3ccc(-c4cnccn4)cn3)ccc2c1`, 2.7 nM.
In general, half-life refers to how long it takes for the measured level to halve. As a reminder, the inhibition is the drop in the measured response relative to a control, in per cent. As for `Cc1cc(-c2ccc(SCC(=O)Nc3ccc(-c4cnccn4)cn3)cc2)ccn1`, the IC50 in data set [1] amounted to 0.53 nM. In addition, the remaining at 0 h, 200 µM in data set [2] is 98%. Further, the remaining at 4 h, 200 µM in [3] is 89%. In [4], the remaining at 8 h, 200 µM is 83%. The remaining at 0.5 h, 1 µM in [5] came to 93%. The remaining at 1 h, 1 µM in data set [6] is 91%. Also, the remaining at 8 h, 1 µM in [7] amounted to 83%. Also, the CLint scaled at 1 µM in data set [8] turned out to be 263 mL/min/kg; in data set [9], 1790 mL/min/kg. For the same compound, the half-life at 1 µM is 6.8 min in [10] and 3.4 min in [11]. Besides, the inhibition at 10 µM at CYP3A4 stood at 60%; at CYP2D6, 45%.
Turning to `Cc1cc(-c2cccc(NCC(=O)Nc3ccc(-c4cnccn4)cn3)c2)ccn1`, the IC50 in [1] came out at 164 nM.
As for `O=C(COc1ccc2ccccc2c1)Nc1ccc(-c2cnccn2)cn1`, the IC50 in data set [1] is above 1000 nM.
Turning to `Cc1cc(-c2cccc(SCC(=O)Nc3ccc(-c4cnccn4)cn3)c2)ccn1`, in data set [1], the IC50 came out at 40 nM.
Still for that read-out and setting: with `CC(=O)N1CCc2ccc(OCC(=O)Nc3ccc(-c4cnccn4)cn3)cc2C1` the figure was 24 nM; with `Cn1ncc2cc(OCC(=O)Nc3ccc(-c4cnccn4)cn3)ccc21`, above 1000 nM.
As to `Cc1cc(-c2cccc(OCC(=O)Nc3ccc(-c4cnccn4)cn3)c2)ccn1`, in [1], the IC50 amounted to 188 nM.
`Nc1noc2ccc(OCC(=O)Nc3ccc(-c4cnccn4)cn3)cc12`: the half-inhibitory concentration (IC50) in data set [1] was above 1000 nM.
In the case of `O=C(COc1ccc2ccncc2c1)Nc1ccc(-c2cnccn2)cn1`, the IC50 in [1] worked out at 30 nM.
Regarding `Cc1cc(-c2ccc(CCC(=O)Nc3ccc(-c4cnccn4)cn3)cc2)ccn1`, the IC50 in data set [1] turned out to be 0.19 nM. Also, the remaining at 0 h, 200 µM in [2] was 100%. Also, the remaining at 4 h, 200 µM in data set [3] was 97%. Also, the remaining at 8 h, 200 µM in data set [4] was 93%. For the same compound, the remaining at 0.5 h, 1 µM in data set [5] came out at 98%. Besides, the remaining at 1 h, 1 µM in [6] is 94%. Besides, the remaining at 8 h, 1 µM in data set [7] stood at 90%. Moreover, the CLint scaled at 1 µM in data set [8] is 84 mL/min/kg; in data set [9], 1260 mL/min/kg. Further, the half-life at 1 µM in data set [10] amounted to 21 min; in [11] it was 4.8 min. Also, the inhibition at 10 µM on CYP3A4 was 45%; at CYP2D6 it was 47%.
For the compound `CC(=O)N1CCN(c2ccc(OCC(=O)Nc3ccc(-c4cnccn4)cn3)cc2)CC1`, the IC50 in data set [1] turned out to be 483 nM.
Turning to `Cc1cc(-c2ccc(OCC(=O)Nc3ccc(-c4cnccn4)cn3)cc2)ccn1`, the 50% inhibitory concentration (IC50) in [1] came to 0.23 nM. For the same compound, the inhibition result in [12] was “Active”. In data set [2], the remaining at 0 h, 200 µM is 96%. In addition, in data set [3], the remaining at 4 h, 200 µM was 81%. Also, the remaining at 8 h, 200 µM in data set [4] was 67%. Moreover, in [5], the remaining at 0.5 h, 1 µM was 97%. Besides, the remaining at 1 h, 1 µM in data set [6] is 90%. The remaining at 8 h, 1 µM in [7] is 84%. The CLint scaled at 1 µM in data set [8] was 135 mL/min/kg; in [9], 1430 mL/min/kg. The half-life at 1 µM was determined as 13 min in data set [10] and 4.3 min in [11]. Also, the figures for the inhibition at 10 µM against CYP3A4 and at CYP2D6 were 47% and 19%, respectively. Also, the Activity entry in data set [13] is listed as “Non-toxic”.
On to `O=C(COc1ccc2[nH]ncc2c1)Nc1ccc(-c2cnccn2)cn1`, for which the IC50 in [1] is above 1000 nM.
On the same count and under the same terms, the result for `Cc1cc(-c2ccc(OC(=O)Nc3ccc(-c4cccnc4)cc3)cc2)ccn1` reads 2.2 nM.
`Cc1cc(-c2ccc(OC(C)C(=O)Nc3ccc(-c4cnccn4)cn3)cc2)ccn1` (stereo not given): in data set [1], the IC50 amounted to 0.11 nM. In addition, the inhibition entry in data set [12] was “Active”. Besides, the remaining at 0 h, 200 µM in data set [2] was 97%. Moreover, the remaining at 4 h, 200 µM in data set [3] is 85%. Further, the remaining at 8 h, 200 µM in data set [4] was 71%. The remaining at 0.5 h, 1 µM in data set [5] amounted to 100%. Moreover, the remaining at 1 h, 1 µM in data set [6] was 100%. Besides, the remaining at 8 h, 1 µM in data set [7] came to 100%. The CLint scaled at 1 µM in data set [8] is 43 mL/min/kg; in data set [9], 321 mL/min/kg. In addition, the half-life at 1 µM was determined as 41 min in data set [10] and 19 min in [11]. Further, the inhibition at 10 µM was determined as 67% against CYP3A4 and 53% at CYP2D6. Also, the Activity entry in [13] was “Non-toxic”. The Ratio IC50 in [14] amounted to 5.
Take `Cn1ncc2cc(NCC(=O)Nc3ccc(-c4cnccn4)cn3)ccc21`: the IC50 in [1] was above 1000 nM.
On the same count and under the same terms, the result for `COc1ccc2cc(OCC(=O)Nc3ccc(-c4cnccn4)cn3)ccc2c1` reads above 1000 nM.
In the case of `Cc1cc(-c2ccc(NCC(=O)Nc3ccc(-c4cnccn4)cn3)cc2)ccn1`, the IC50 in data set [1] turned out to be 0.96 nM. Also, in data set [12], the inhibition result is “Active”. Further, in data set [2], the remaining at 0 h, 200 µM is 95%. Moreover, the remaining at 4 h, 200 µM in [3] was 88%. In data set [4], the remaining at 8 h, 200 µM is 85%. The remaining at 0.5 h, 1 µM in data set [5] worked out at 100%. Also, in data set [6], the remaining at 1 h, 1 µM turned out to be 100%. Moreover, in [7], the remaining at 8 h, 1 µM stood at 98%. In addition, the CLint scaled at 1 µM in [8] came out at 45 mL/min/kg; in [9], 440 mL/min/kg. Moreover, the half-life at 1 µM in [10] stood at 39 min; in [11], 14 min. Further, the inhibition at 10 µM against CYP3A4 was 50%; on CYP2D6, 53%. Besides, the Activity result in data set [13] is given as “Non-toxic”.
